Experimental data published in patent US20080009418A1, “Selective Inhibitors” (Alchemia LTD., priority 2004, published 2008).

Assays:
Human Melanocortin (MC4) = molecular target: T1, Human Melanocortin (MC4) (Homo sapiens, UniProt P32245); assay: Radioligand binding, human melanocortin MC4 membranes, FlashPlate, [125I]-NDP-αMSH; settings: compound at 10 μM; [125I]-NDP-αMSH, FlashPlate
T1 construct: purchased Perkin Elmer Biosignal
Outline: (§1)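 Cloned human receptor membranes were coated onto FlashPlate wells and incubated with radioligand and compound (added from a 0.5 mM DMSO daughter plate) for 1 hour at room temperature in the dark. Scintillation counting gave percent inhibition, with DMSO defining total and reference ligand defining non-specific binding.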

Human κ-Opioid (KOP) = molecular target: T2, Human κ-Opioid (KOP) (Homo sapiens, UniProt P41145); assay: Radioligand binding, human κ-opioid (KOP) membranes, filtration, [3H]-Diprenorphine; settings: compound at 10 μM; [3H]-Diprenorphine, filtration
T2 construct: purchased Perkin Elmer Biosignal
T2 sequence (P41145 whole entry): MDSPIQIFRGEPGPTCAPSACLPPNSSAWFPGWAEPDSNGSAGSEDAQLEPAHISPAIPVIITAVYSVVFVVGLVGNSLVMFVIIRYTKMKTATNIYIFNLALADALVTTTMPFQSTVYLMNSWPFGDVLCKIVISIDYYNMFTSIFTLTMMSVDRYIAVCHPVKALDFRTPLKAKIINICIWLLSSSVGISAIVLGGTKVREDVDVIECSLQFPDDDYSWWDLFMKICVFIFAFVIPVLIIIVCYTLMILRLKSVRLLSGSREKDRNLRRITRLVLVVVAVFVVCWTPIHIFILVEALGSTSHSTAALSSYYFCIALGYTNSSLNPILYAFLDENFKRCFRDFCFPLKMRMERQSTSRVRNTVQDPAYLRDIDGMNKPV
Outline: (§2)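 Percent inhibition of radioligand binding measured on recombinant human membranes: NK1 with [125I]-Substance P, KOP with [3H]-Diprenorphine. Incubation 1 h at room temperature, then harvest onto 0.3% PEI-soaked filters, cold Tris-HCl pH 7.4 washes and scintillation counting; non-specific binding from reference ligand wells.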

Human neurokinin (NK1) = molecular target: T3, Human neurokinin (NK1) (Homo sapiens, UniProt P25103); assay: Radioligand binding, human neurokinin NK1 membranes, filtration, [125I]-Substance P; settings: compound at 10 μM; [125I]-Substance P, filtration
T3 construct: purchased Perkin Elmer Biosignal
T3 sequence (P25103 whole entry): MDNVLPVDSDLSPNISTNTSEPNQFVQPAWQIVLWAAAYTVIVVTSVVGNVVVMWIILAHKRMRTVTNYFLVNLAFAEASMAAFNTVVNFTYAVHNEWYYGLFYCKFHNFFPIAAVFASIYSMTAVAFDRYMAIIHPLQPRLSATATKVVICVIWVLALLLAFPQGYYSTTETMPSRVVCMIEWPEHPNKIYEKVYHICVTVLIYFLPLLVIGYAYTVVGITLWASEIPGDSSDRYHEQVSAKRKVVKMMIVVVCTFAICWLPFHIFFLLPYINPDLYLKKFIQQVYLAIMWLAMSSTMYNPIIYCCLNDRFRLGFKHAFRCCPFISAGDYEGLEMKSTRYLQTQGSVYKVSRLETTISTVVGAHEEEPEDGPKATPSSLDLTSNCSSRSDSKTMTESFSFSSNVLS
Outline: as §2

[1] = molecular target: T4, Human melanin-concentrating hormone (MCH1) (Homo sapiens, UniProt Q99705); assay: Radioligand binding, human melanin-concentrating hormone MCH1 membranes, FlashPlate, [125I]-S36057; settings: compound at 10 μM; [125I]-S36057, FlashPlate
T4 construct: purchased Perkin Elmer Biosignal
T4 sequence (Q99705 whole entry): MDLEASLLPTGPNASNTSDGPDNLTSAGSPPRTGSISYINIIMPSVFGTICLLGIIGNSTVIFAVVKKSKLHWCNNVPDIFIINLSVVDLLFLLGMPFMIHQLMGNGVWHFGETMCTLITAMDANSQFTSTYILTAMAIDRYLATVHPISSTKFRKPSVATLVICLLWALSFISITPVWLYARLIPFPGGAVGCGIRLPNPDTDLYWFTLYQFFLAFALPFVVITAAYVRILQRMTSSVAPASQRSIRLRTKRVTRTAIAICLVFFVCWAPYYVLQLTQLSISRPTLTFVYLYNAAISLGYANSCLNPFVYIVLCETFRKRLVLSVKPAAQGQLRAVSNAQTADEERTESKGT
Outline: as §1

Human Melanocortin (MC3) = molecular target: T5, Human Melanocortin (MC3) (Homo sapiens, UniProt P41968); assay: Radioligand binding, human melanocortin MC3 membranes, FlashPlate, [125I]-NDP-αMSH; settings: compound at 10 μM; [125I]-NDP-αMSH, FlashPlate
T5 construct: purchased Perkin Elmer Biosignal
T5 sequence (P41968 whole entry): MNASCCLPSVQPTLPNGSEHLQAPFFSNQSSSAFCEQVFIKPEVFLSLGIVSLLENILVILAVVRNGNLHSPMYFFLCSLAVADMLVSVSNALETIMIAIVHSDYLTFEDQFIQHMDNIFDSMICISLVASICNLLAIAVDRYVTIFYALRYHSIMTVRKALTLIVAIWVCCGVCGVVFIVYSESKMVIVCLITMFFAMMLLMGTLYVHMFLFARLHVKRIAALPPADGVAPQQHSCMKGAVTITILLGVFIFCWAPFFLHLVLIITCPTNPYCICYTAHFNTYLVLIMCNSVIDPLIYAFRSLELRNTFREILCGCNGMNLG
Outline: as §1

Human opioid (ORL1) = molecular target: T6, Human opioid (ORL1) (Homo sapiens, UniProt P41146); assay: Radioligand binding, human opioid ORL1 membranes, FlashPlate, [125I]-Nociceptin; settings: compound at 10 μM; [125I]-Nociceptin, FlashPlate
T6 construct: purchased Perkin Elmer Biosignal
T6 sequence (P41146 whole entry): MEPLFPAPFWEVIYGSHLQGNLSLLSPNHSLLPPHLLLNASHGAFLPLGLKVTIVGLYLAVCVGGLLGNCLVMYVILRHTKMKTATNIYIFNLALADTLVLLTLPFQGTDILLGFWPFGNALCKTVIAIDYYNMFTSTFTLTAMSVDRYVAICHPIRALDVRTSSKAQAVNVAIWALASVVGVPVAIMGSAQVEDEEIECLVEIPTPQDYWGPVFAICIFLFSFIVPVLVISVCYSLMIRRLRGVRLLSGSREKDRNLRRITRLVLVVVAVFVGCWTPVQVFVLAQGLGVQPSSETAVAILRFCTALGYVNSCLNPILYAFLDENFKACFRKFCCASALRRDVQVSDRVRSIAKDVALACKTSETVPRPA
Outline: as §1

Human μ-opioid (MOP) = molecular target: T7, Human μ-opioid (MOP) (Homo sapiens, UniProt P35372); assay: Radioligand binding, human μ-opioid (MOP) membranes, FlashPlate, [3H]-Naloxone; settings: compound at 10 μM; [3H]-Naloxone, FlashPlate
T7 construct: purchased Perkin Elmer Biosignal
T7 sequence (P35372 whole entry): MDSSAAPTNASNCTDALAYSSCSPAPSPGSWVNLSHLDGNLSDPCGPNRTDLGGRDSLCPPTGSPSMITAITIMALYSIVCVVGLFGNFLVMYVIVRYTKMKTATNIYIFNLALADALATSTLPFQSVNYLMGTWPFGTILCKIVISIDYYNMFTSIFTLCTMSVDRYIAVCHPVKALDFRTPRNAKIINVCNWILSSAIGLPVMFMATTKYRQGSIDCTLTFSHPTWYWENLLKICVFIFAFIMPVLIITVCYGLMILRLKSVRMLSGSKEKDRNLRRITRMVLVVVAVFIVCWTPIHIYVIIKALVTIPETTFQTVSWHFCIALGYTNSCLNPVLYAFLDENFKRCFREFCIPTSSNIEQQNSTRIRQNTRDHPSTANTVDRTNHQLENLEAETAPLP
Outline: as §1

Human δ-opioid (DOP) = molecular target: T8, Human δ-opioid (DOP) (Homo sapiens, UniProt P41143); assay: Radioligand binding, human δ-opioid (DOP) membranes, FlashPlate, [3H]-Bremazocine; settings: compound at 10 μM; [3H]-Bremazocine, FlashPlate
T8 construct: purchased Perkin Elmer Biosignal
T8 sequence (P41143 whole entry): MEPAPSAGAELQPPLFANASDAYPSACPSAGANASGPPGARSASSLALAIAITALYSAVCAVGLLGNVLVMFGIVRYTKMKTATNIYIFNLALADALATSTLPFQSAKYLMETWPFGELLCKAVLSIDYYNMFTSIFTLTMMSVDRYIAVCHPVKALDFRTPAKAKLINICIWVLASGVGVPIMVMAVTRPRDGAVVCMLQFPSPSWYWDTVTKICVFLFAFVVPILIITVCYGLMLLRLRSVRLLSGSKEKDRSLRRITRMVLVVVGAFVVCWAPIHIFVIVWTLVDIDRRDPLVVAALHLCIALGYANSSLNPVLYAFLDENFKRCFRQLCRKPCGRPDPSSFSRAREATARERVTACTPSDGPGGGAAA
Outline: as §1

[2] = molecular target: T9, Human neuropeptide Y (NPY-Y1) (Homo sapiens, UniProt P25929); assay: Radioligand binding, human neuropeptide Y NPY-Y1 membranes, FlashPlate, [125I]-PYY; settings: compound at 10 μM; [125I]-PYY, FlashPlate
T9 construct: purchased Perkin Elmer Biosignal
T9 sequence (P25929 1-384): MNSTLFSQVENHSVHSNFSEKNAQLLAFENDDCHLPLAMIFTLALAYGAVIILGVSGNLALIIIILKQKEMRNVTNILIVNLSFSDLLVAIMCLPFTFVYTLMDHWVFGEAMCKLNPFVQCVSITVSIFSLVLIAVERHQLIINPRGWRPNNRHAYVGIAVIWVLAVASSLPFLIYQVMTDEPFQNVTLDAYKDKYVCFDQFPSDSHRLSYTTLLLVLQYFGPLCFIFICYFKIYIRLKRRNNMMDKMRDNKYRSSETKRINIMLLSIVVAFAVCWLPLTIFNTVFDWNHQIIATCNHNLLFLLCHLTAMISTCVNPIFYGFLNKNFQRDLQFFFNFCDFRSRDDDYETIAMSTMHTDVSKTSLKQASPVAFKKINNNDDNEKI
Outline: as §1

Mouse urotensin (mUR2) = molecular target: T10, Mouse urotensin (mUR2) (Mus musculus, UniProt Q8VIH9); assay: Radioligand binding, mouse urotensin mUR2 membranes, FlashPlate, [125I]-Urotensin II; settings: compound at 10 μM; [125I]-Urotensin II, FlashPlate
T10 construct: purchased Perkin Elmer Biosignal
T10 sequence (Q8VIH9 1-385): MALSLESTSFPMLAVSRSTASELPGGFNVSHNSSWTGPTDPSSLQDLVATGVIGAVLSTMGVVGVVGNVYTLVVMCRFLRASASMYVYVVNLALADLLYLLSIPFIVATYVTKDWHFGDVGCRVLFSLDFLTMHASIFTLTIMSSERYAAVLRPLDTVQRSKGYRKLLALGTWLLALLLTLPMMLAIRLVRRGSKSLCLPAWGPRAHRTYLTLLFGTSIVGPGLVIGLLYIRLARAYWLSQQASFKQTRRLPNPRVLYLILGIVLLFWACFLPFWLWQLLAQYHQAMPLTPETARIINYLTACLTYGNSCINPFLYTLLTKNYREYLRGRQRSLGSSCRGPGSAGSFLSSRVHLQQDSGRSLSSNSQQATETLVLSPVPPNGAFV
Outline: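 Cloned mouse urotensin (mUR2) receptor membranes from Perkin Elmer Biosignal were immobilized in FlashPlate microplates using a proprietary coating. Each well got 19.5 μl buffer, then 0.5 μl of DMSO, reference ligand, or compound. Adding 5 μl of [125I]-Urotensin II, diluted to 5× final concentration in binding buffer, started binding. Plates were sealed with TopSeal-A and incubated 1 hour at room temperature in the dark. Wells were counted for 30 seconds each on a TopCount after a 60-second delay, and percentage inhibition was calculated.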

Human melanocortin (MC5) = molecular target: T11, Human melanocortin (MC5) (Homo sapiens, UniProt P33032); assay: Radioligand binding, human melanocortin MC5 membranes, FlashPlate, [125I]-NDP-αMSH; settings: compound at 10 μM; [125I]-NDP-αMSH, FlashPlate
T11 construct: purchased Perkin Elmer Biosignal
T11 sequence (P33032 whole entry): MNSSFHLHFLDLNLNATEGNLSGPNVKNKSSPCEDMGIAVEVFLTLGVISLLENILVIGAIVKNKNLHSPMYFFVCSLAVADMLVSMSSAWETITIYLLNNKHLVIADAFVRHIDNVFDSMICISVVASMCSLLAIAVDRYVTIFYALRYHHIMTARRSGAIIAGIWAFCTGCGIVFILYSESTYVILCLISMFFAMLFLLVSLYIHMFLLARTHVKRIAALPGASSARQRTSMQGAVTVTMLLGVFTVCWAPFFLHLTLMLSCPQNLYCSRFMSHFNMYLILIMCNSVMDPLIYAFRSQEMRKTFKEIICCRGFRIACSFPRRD
Outline: as §1

T1 sequence (P32245 whole entry): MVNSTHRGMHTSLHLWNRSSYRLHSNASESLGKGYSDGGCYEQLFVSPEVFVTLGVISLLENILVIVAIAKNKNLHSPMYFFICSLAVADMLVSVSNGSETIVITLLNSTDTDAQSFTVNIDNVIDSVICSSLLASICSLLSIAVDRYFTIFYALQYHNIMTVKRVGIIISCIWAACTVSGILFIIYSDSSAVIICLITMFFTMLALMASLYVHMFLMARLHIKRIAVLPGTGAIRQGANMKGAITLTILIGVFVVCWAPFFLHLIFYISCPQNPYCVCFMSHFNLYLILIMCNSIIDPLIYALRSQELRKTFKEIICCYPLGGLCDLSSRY

Structure (SMILES)	A4: inhibition of radioligand binding (Human Melanocortin (MC4))	A2: inhibition of radioligand binding (Human κ-Opioid (KOP))	A8: inhibition of radioligand binding (Human neurokinin (NK1))	A6: inhibition of radioligand binding [1]	A3: inhibition of radioligand binding (Human Melanocortin (MC3))	A10: inhibition of radioligand binding (Human opioid (ORL1))	A7: inhibition of radioligand binding (Human μ-opioid (MOP))	A1: inhibition of radioligand binding (Human δ-opioid (DOP))	A9: inhibition of radioligand binding [2]	A11: inhibition of radioligand binding (Mouse urotensin (mUR2))	A5: inhibition of radioligand binding (Human melanocortin (MC5))
COCC1OC(OCc2ccc3ccccc3c2)C(NC(=O)CCNC(=N)N)C(OCc2ccc3ccccc3c2)C1O (stereo not drawn) [compound 249]	+ (“+” indicates greater than 50% inhibition at 10 μM)	− (“−” indicates less than 50% inhibition at 10 μM)	+ (“+” indicates greater than 50% inhibition at 10 μM)	+ (“+” indicates greater than 50% inhibition at 10 μM)	+ (“+” indicates greater than 50% inhibition at 10 μM)	− (“−” indicates less than 50% inhibition at 10 μM)	+ (“+” indicates greater than 50% inhibition at 10 μM)	− (“−” indicates less than 50% inhibition at 10 μM)	− (“−” indicates less than 50% inhibition at 10 μM)	− (“−” indicates less than 50% inhibition at 10 μM)	+ (“+” indicates greater than 50% inhibition at 10 μM)
COCC1OC(OCc2ccc3ccccc3c2)C(NC(=O)CCCNC(=N)N)C(OCc2ccc3ccccc3c2)C1O (stereo not drawn) [compound 250]	+ (“+” indicates greater than 50% inhibition at 10 μM)	− (“−” indicates less than 50% inhibition at 10 μM)	+ (“+” indicates greater than 50% inhibition at 10 μM)	+ (“+” indicates greater than 50% inhibition at 10 μM)	− (“−” indicates less than 50% inhibition at 10 μM)	+ (“+” indicates greater than 50% inhibition at 10 μM)	− (“−” indicates less than 50% inhibition at 10 μM)	− (“−” indicates less than 50% inhibition at 10 μM)	− (“−” indicates less than 50% inhibition at 10 μM)	− (“−” indicates less than 50% inhibition at 10 μM)	+ (“+” indicates greater than 50% inhibition at 10 μM)
CSC1OC(COCc2ccccc2)C(O)C(OCc2ccccc2)C1NC(=O)CCNC(=N)N (stereo not drawn) [compound 251]	− (“−” indicates less than 50% inhibition at 10 μM)	− (“−” indicates less than 50% inhibition at 10 μM)	+ (“+” indicates greater than 50% inhibition at 10 μM)	− (“−” indicates less than 50% inhibition at 10 μM)	− (“−” indicates less than 50% inhibition at 10 μM)	− (“−” indicates less than 50% inhibition at 10 μM)	− (“−” indicates less than 50% inhibition at 10 μM)	− (“−” indicates less than 50% inhibition at 10 μM)	− (“−” indicates less than 50% inhibition at 10 μM)	− (“−” indicates less than 50% inhibition at 10 μM)	− (“−” indicates less than 50% inhibition at 10 μM)
CSC1OC(COCc2ccccc2)C(O)C(OCc2ccccc2)C1NC(=O)CCCNC(=N)N (stereo not drawn) [compound 252]	− (“−” indicates less than 50% inhibition at 10 μM)	− (“−” indicates less than 50% inhibition at 10 μM)	+ (“+” indicates greater than 50% inhibition at 10 μM)	− (“−” indicates less than 50% inhibition at 10 μM)	− (“−” indicates less than 50% inhibition at 10 μM)	− (“−” indicates less than 50% inhibition at 10 μM)	− (“−” indicates less than 50% inhibition at 10 μM)	− (“−” indicates less than 50% inhibition at 10 μM)	− (“−” indicates less than 50% inhibition at 10 μM)	− (“−” indicates less than 50% inhibition at 10 μM)	− (“−” indicates less than 50% inhibition at 10 μM)
CSC1OC(COCc2ccc(Cl)cc2)C(O)C(OCc2ccccc2)C1NC(=O)CNC(=N)N (stereo not drawn) [compound 253]	− (“−” indicates less than 50% inhibition at 10 μM)	− (“−” indicates less than 50% inhibition at 10 μM)	+ (“+” indicates greater than 50% inhibition at 10 μM)	− (“−” indicates less than 50% inhibition at 10 μM)	− (“−” indicates less than 50% inhibition at 10 μM)	− (“−” indicates less than 50% inhibition at 10 μM)	− (“−” indicates less than 50% inhibition at 10 μM)	− (“−” indicates less than 50% inhibition at 10 μM)	− (“−” indicates less than 50% inhibition at 10 μM)	− (“−” indicates less than 50% inhibition at 10 μM)	+ (“+” indicates greater than 50% inhibition at 10 μM)
CSC1OC(COCc2ccc(Cl)cc2)C(O)C(OCc2ccccc2)C1NC(=O)CCNC(=N)N (stereo not drawn) [compound 254]	− (“−” indicates less than 50% inhibition at 10 μM)	− (“−” indicates less than 50% inhibition at 10 μM)	+ (“+” indicates greater than 50% inhibition at 10 μM)	− (“−” indicates less than 50% inhibition at 10 μM)	− (“−” indicates less than 50% inhibition at 10 μM)	− (“−” indicates less than 50% inhibition at 10 μM)	− (“−” indicates less than 50% inhibition at 10 μM)	− (“−” indicates less than 50% inhibition at 10 μM)	− (“−” indicates less than 50% inhibition at 10 μM)	− (“−” indicates less than 50% inhibition at 10 μM)	− (“−” indicates less than 50% inhibition at 10 μM)
